Literature values in paper PMC9835671 (The Pediatric Infectious Disease Journal, 2022).
In brackets after ≈: the same amount, converted by molar mass. Like-named read-outs stand apart in the source and are kept apart here.

What was measured:
[1] = tested on: S aureus; settings: adult popPK model; 1000-mg (double-dose) and 1500-mg (single-dose) doses; MIC ≤2 mg/L
[2] = tested on: S aureus; settings: neutropenic murine thigh infection model
[3] = tested on: serum albumin; settings: intravenously administered
[4] = tested on: S aureus
[5] = adults
[6] = tested on: ABSSSI; settings: for Clinical response: microbiological ITT population

CN[C@H]1C(=O)N[C@@H]2Cc3ccc(cc3)Oc3cc4cc(c3O[C@@H]3O[C@H](C(=O)O)[C@@H](O)[C@H](O)[C@H]3NC(=O)CCCCCCCCC(C)C)Oc3ccc(cc3Cl)[C@@H](O)[C@@H]3NC(=O)[C@H](NC(=O)[C@@H]4NC(=O)[C@@H](NC2=O)c2cc(cc(O)c2Cl)Oc2cc1ccc2O)c1ccc(O)c(c1)-c1c(O[C@H]2O[C@H](CO)[C@@H](O)[C@H](O)[C@@H]2O)cc(O)cc1[C@@H](C(=O)NCCCN(C)C)NC3=O [dalbavancin]
simulated patients predicted to achieve the stasis target [1]: > 99% | 24-hour fAUC/MIC target for bacterial stasis [2]: 27.1 h | bound to serum albumin [3]: ~ 93% | unbound form [3]: 7% | CLSI susceptibility breakpoint ([4]; Clinical and Laboratory Standards Institute): 0.25 µg/mL | MIC90 ([4]; against S aureus): 0.03 µg/mL (≈ 0.0165 µM) | terminal elimination half-life (t1/2) [5]: > 14 days | Clinical response ([6]; double-dose regimen, end-of-treatment): 97.3% | Clinical response ([6]; double-dose regimen, follow-up): 97.3% | Clinical response ([6]; single-dose regimen, end-of-treatment): 94.8% | Clinical response ([6]; single-dose regimen, follow-up): 97.4% | patients who achieved a clinical cure ([6]; test-of-cure): > 96%
